{"source": "patent US11260042B2", "about": "“Pharmaceutical combination for the treatment of cancer” (ABILITY PHARMACEUTICALS S.L., priority 2017, dated 2022)", "key": {"[1]": {"test_system": "A549 (human lung carcinoma) cell line", "experiment": "Cell viability (MTT) of ABTL0812 in combination with docetaxel in lung cancer", "type": "cell-based", "settings": "A549, three days, FBS 0.5%, single agent", "experimental": "Methods: A549 cells were incubated with increasing concentrations of ABTL0812 (3-300 μM), docetaxel (0.01-100 μM), or a combination of both (subIC50, i.e., 20 μM fixed concentration of ABTL812 and 0.01-100 μM docetaxel) for three days (FBS 0.5%). […] In the denominator, (Dx)1 is for D1“alone” that inhibits a system x %, and (Dx)2 is for D2“alone” that inhibits a system x %."}, "[2]": {"test_system": "MiaPaca2 (human pancreatic carcinoma)", "experiment": "Cell viability (MTT) of ABTL0812 alone or with gemcitabine in pancreatic cancer", "type": "cell-based", "experimental": "Methods: MiaPaca2 cells were seeded in 24-well plates together with gemcitabine (0.01-100 μM), ABTL812 (3-300 μM), or a combination of both (subIC50, i.e., 25 μM fixed concentration of ABTL0812 with 0.01-100 μM gemcitabine) and left in the incubator for 72h (0.5% FBS). Cell viability was studied by the MTT assay and several parameters were determined to evaluate a possible synergism. First the IC50 for each drug alone or the combination was calculated. Then, synergism (CI) was calculated as described above."}, "[3]": {"test_system": "A549 human lung adenocarcinoma xenograft", "type": "in vivo", "settings": "ABTL0812 30 mg/kg/day oral 5 times a week; docetaxel 5 mg/kg i.p. once a week", "experimental": "Methods: Mice were injected with 5×10^6 A549 cells in each flank to induce tumor formation. […] ABTL0812 was administered by the oral route at 30 mg/kg/day, 5 times a week. Docetaxel 5 mg/kg was administered intra-peritoneally once a week (Coxon et al. 2012). Tumor volume and body weight were monitorized 3 times a week."}, "[4]": {"test_system": "SH-SY5Y human neuroblastoma xenograft", "type": "in vivo, Nu/nu female mice", "experimental": "Methods: Immunodeficient athymic NMRI-Foxn1^nu/Foxn1^nu nude mice were subcutaneously injected with SH-SY5Y cells. This cell line was genetically modified to express luciferase, which would allow the in vivo study not only of tumor size, but also of metastasis formation. When tumors reached an average volume of 80 mm^3, mice were randomly distributed into different treatment groups. ABTL0812 was administered orally at 120 mg/kg daily. In parallel we used cisplatin, a drug included in the chemotherapy induction phase for the treatment of neuroblastoma. Cisplatin was administered at 2 mg/kg i.p. twice a week (Wang et al. 2010). Additionally, we studied the effect of combining ABTL0812 with cisplatin at the indicated doses.\nC. Metastasis formation. In order to investigate the effect of ABTL0812 in metastasis formation we used a SH-SY5Y cell line transduced with a luciferase reporter vector. As described above, mice bearing xenograft tumors derived from this cell line were treated with ABTL0812, cisplatin or the combination of both drugs. After ten days of treatment animals were sacrificed and metastasis were assessed ex vivo by monitoring luciferase-expressing cells in lung and liver."}}, "data": [{"compound": "CCCCC/C=C\\C/C=C\\CCCCCCC(O)C(=O)O", "note": "(centres unmarked) [ABTL0812, COOH—CHOH—(CH2)6—(CH═CH—CH2)2—(CH2)3—CH3]", "values": [{"measurement": "IC50", "setting": "[1]", "result": 42, "unit": "µM"}, {"measurement": "cytotoxicity alone at the concentration chosen for the combination", "setting": "[2]; MiaPaca2, 25 μM ABTL0812", "result": "< 10", "unit": "%"}, {"measurement": "IC50", "setting": "[2]; MiaPaca2, 72h, 0.5% FBS, MTT, single agent", "result": 49, "unit": "µM"}, {"measurement": "tumor volume", "setting": "[3]", "result": "significantly reduced tumor volume when compared to control animals"}, {"measurement": "tumor progression (size, weight)", "setting": "[4]; ABTL0812 120 mg/kg oral daily, cisplatin 2 mg/kg i.p. twice a week", "result": "inhibits tumor progression with an efficacy that is similar to cisplatin"}, {"measurement": "Hematocrit", "setting": "[4]; mouse, in vivo", "result": "40.2 ± 1.4", "unit": "%"}, {"measurement": "RBC", "setting": "[4]; mouse, in vivo", "result": "7.9 ± 0.4 ×10^6/μL"}, {"measurement": "WBC", "setting": "[4]; mouse, in vivo", "result": "3.9 ± 1.3 ×10^3/μL"}, {"measurement": "hematological safety", "setting": "[4]; mouse, in vivo", "result": "no impact on blood hematocrit"}, {"measurement": "loss of body weight (transient)", "setting": "[4]; mouse, in vivo", "result": "< 10", "unit": "%"}, {"measurement": "metastasis formation in lung and liver", "setting": "[4]; ten days of treatment, luciferase-expressing cells ex vivo", "result": "inhibited metastasis formation"}]}]}
